Source: patent US20040219106A1, “Compounds for use as surfactants” (priority 2001, published 2004)

Key:
Assay type in all cases: physicochemical
[1] = Content uniformity by dose through use testing; details: for BuO dose: actuations 1+2, mean of 10 inhalers; for EuO dose: actuations 119+120, mean of 10 inhalers
Experimental: (§1) Salmeterol xinafoate formulations in HFA 134a (1,1,1,2-tetrafluoroethane), of strength 25 μg per actuation, and 10% w/w (relative to drug) of the surfactant compound of Example 1 (Bis(4,4,5,5,5-pentafluopentanoyl)phosphatidylcholine) were prepared using salmeterol xinafoate (5.8 mg), HFA 134a (12 g) and the relevant compound (0.58 mg). The control was prepared without the addition of a surfactant.
The content uniformity of the formulation, the preparation of which is described above, was assessed by dose through use testing. Testing was performed on 10 cans/inhalers at “beginning of use” (BoU) and “end of use” (EoU). After each inhaler had been primed (4 shots fired to waste), actuations 1 and 2 (BoU) were collected. The next 116 actuations of each inhaler were then fired to waste using an automated method and actuations 119 and 120 (EoU) collected.
Assesment of content uniformity was performed intially (following sample preparation) and then on a further 10 inhalers for each timepoint, 8 weeks and 3 months, which were stored at 40° C./75% RH. Mean results from the two BoU actuations (1+2 for 10 inhalers) and the two EoU actuations (119+120 for same 10 inhalers) at each timepoint together with the percentage relative standard deviation (% RSD) for the 10 cans are shown in Table 3.

[2] = Particle size of salmeterol xinafoate HFA 134a suspension by image analysis (Galai CIS-100)
Experimental: as §1
In this measurement, particle size is represented as the equivalent diameter of a circle of equal area to the object. The mean is the average of 4 determinations. The particle size measurement was obtained by transferring the suspensions to a presurised cell, and video-imaging the sample under shear via a microscope objective.
The equivalent diameter is defined as the diameter of a circle of equal area to the object. [formula]
The mean equivalent diameter can be weighted by number, length or volume. e.g. For three particles with equivalent diameters of x, y and z: [formula]

[3] = Andersen Cascade Impaction of salmeterol xinafoate HFA 134a formulation; details: for % FPM (FPM as percentage of total dose emitted ex-valve) / FPM (fine particle mass, sum of stages 3-5) / Total Dose Emitted (Ex-Actuator) / Total Dose Emitted (Ex-Valve): BoU, mean of 3 cans/inhalers
Experimental: as §1
The formulation, the preparation of which is described above, was profiled using an Andersen Cascade Impactor. Ten actuations at “beginning of use” (BoU) were collected in the impactor from an inhaler after 4 priming actuations were fired to waste. The drug delivered was then quantified by HPLC analysis. Testing was performed intially (following sample preparation) and then after inhalers had been stored at 40° C./75% RH for 8 weeks and for 3 months. The results, at each timepoint, in Table 2 are shown as the mean analysis of 3 cans/inhalers.
The profile obtained was used to determine total dose emitted dose (ex-valve and ex-actuator) and the fine particle mass (FPM, defined as the sum of stages 3-5). The percentage fine particle mass expresses the FPM as a percentage of the total dose emitted (ex-valve). The FPM is used as a measure of the proportion of the drug likely to reach the therapeutic target in the lungs.

[4] = in the presence of the surfactant

## C[N+](C)(C)CCOP(=O)([O-])OC[C@@H](COC(=O)CCC(F)(F)C(F)(F)F)OC(=O)CCC(F)(F)C(F)(F)F [Example 1, Bis(4,4,5,5,5-pentafluopentanoyl)phosphatidylcholine]
[1]; 3 Month at 40° C./75% RH
  BuO dose: 19.7 µg
  EuO dose: 22.6 µg
[1]; 8 Week at 40° C./75% RH
  BuO dose: 20.3 µg
  EuO dose: 24.2 µg
[1]; 10 inhalers tested
  change in percentage RSD at EoU versus control (can to can reproducibility): reduction
[1]; Initial
  BuO dose: 19.6 µg
  EuO dose: 23.3 µg
[2]; compound incorporated into the formulation
  change in average particle size (mean length weighted diameter) versus control: marked reduction
[2]; salmeterol xinafoate 25 μg per actuation in HFA 134a, 10% w/w surfactant relative to drug, average of 4 determinations
  Mean Length weighted diameter: 13.3 μm
[2]; salmeterol xinafoate in HFA 134a, 10% w/w surfactant
  suspension stabilising properties (discouraging flocculation of drug particles): suspension stabilising properties
[3]; 3 month at 40° C./75% RH
  % FPM (FPM as percentage of total dose emitted ex-valve): 42.5%
  FPM (fine particle mass, sum of stages 3-5): 10.4 µg
  Total Dose Emitted (Ex-Actuator): 20.1 µg
  Total Dose Emitted (Ex-Valve): 24.4 µg
[3]; 8 week at 40° C./75% RH
  % FPM (FPM as percentage of total dose emitted ex-valve): 44.2%
  FPM (fine particle mass, sum of stages 3-5): 10.4 µg
  Total Dose Emitted (Ex-Actuator): 19.5 µg
  Total Dose Emitted (Ex-Valve): 23.5 µg
[3]; Initial
  % FPM (FPM as percentage of total dose emitted ex-valve): 47.7%
  FPM (fine particle mass, sum of stages 3-5): 11.1 µg
  Total Dose Emitted (Ex-Actuator): 20.0 µg
[3]; Initial, 10% w/w surfactant
  Total Dose Emitted (Ex-Valve): 23.3 µg
[3]; [4]
  change in absolute FPM versus control: increase
  change in absolute doses emitted versus control: increase
  change in percentage FPM versus control: significant increase
